Key:
[1] = target: T1, GPR139 (Homo sapiens, UniProt Q6DWJ6); assay: Fluo-4 calcium mobilization assay, agonist mode, concentration-response curves in CHO-GPR139 cells; format: cell-based
T1 construct: host or cells: CHO-k1
T1 sequence (Q6DWJ6 1-353): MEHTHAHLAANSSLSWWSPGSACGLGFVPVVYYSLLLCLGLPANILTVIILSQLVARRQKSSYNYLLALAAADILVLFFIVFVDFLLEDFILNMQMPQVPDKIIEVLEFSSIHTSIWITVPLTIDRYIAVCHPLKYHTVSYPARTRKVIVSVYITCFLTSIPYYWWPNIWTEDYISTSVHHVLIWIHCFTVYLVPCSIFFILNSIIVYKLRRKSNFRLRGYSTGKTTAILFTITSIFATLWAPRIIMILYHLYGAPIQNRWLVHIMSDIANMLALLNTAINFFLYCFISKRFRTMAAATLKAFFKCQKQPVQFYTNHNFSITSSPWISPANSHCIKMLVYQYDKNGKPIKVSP
Procedure: All compounds were tested on a CHO-k1 cell line stably expressing GPR139 (CHO-GPR139)[11] kindly provided by H. Lundbeck A/S, Denmark. GPR139-specific responses were assessed using a CHO-k1 cell line stably expressing the muscarinic acetylcholine receptor M1 (CHO-M1) (The Missouri S&T cDNA Resource Center, # CEM100TN00). The CHO-GPR139 cells were grown in Dulbecco’s modified Eagle’s medium (DMEM) F12-Kaighn’s (ThermoFisher Scientific # 21127) supplemented with 10% dialyzed fetal bovine serum (United States origin; ThermoFisher Scientific # 26400), 1% GlutaMAX-I (100X) (ThermoFisher Scientific # 35050061), and 100 units/mL penicillin and 100 µg/mL streptomycin (ThermoFisher Scientific # 15140122) and 1 mg/mL geneticin (ThermoFisher Scientific # 11811031). The CHO-M1 cells were grown in Ham’s F12 (ThermoFisher Scientific # 21765) supplemented with 10% fetal bovine serum (South American origin; ThermoFisher Scientific # 10270) + 100 units/mL penicillin and streptomycin and 0.25 mg/mL geneticin.
The Fluo-4 Ca^2+-assay was performed as described previously, with minor modifications. After 1 hour incubation with the Fluo-4 dye, the CHO-GPR139 cells were washed with 100 μL HEPES buffer (Hank’s Balanced Salt Solution (HBBS, ThermoFisher Scientific # 14175053) supplemented with 20 mM HEPES, 1 mM MgCl2, 1 mM CaCl2, pH = 7.4) and the compound library was then added in concentrations between 25–63 μM dissolved in HEPES buffer (supplemented with 2.5 mM probenecid and 1% DMSO) and pre-incubated for 10 min at 37 °C. 33 μL of 3.2 μM 1a were added automatically after baseline measurements. […] This set-up allowed us to identify both antagonists and agonists (Fig. 2).
Each compound, for which a concentration response curve was made, was tested at least three times in duplicate measurements. After the incubation with the Fluo-4 dye and a wash, 100 μL HEPES buffer (supplemented with 2.5 mM probenecid) was added to each well and incubated for 10 minutes at 37 °C before recording. 33 μL of compounds (4× concentrated) were added automatically after baseline measurements.
(§1) The Ca^2+ and ERK responses were normalized as indicated and the concentration response curves were fitted by Prism 6 software (GraphPad) using nonlinear regression in a sigmoidal model with variable slope, as has been previously described.

[2] = target: T1, GPR139; assay: Phospho-ERK1/2 HTRF assay in CHO-GPR139 cells; format: cell-based; details: ERK phosphorylation; for EC50: CHO-GPR139 cells
Procedure: All compounds were tested on a CHO-k1 cell line stably expressing GPR139 (CHO-GPR139)[11] kindly provided by H. Lundbeck A/S, Denmark. GPR139-specific responses were assessed using a CHO-k1 cell line stably expressing the muscarinic acetylcholine receptor M1 (CHO-M1) (The Missouri S&T cDNA Resource Center, # CEM100TN00).
Phospho-ERK measurements were made using the Advanced Phospho-ERK1/2 (Thr202/Tyr204) HTRF kit by Cisbio (Codolet, France). Approximately 24 hours prior to the experiment, CHO-GPR139 cells were plated at 50,000 cells/well onto a 96-well plate and cultured as detailed above. Approximately 6 hours later, the media was aspirated, replaced with 50 μL serum-free media, and the cells were allowed to serum starve overnight. The day of the experiment, serial dilutions of the test compounds and controls were made in serum-free media at 2x final concentration. 50 μL of test compounds were added directly to the appropriate wells for 5 minute stimulation at 37 °C. At this point, the media and compounds were rapidly aspirated, lysis/blocking buffer was added, and cells were lysed on a shaker for 30 minutes at room temperature.
as §1

[3] = CHO-GPR139 cells, at least three independent concentration-response curves in duplicate, read-out: EC50
[4] = CHO-GPR139 cells, normalized to buffer (0%) and 8 μM 1a (100%)

| pEC50 ± S.E.M. ([1]; CHO-GPR139 cells) | EC50 [1, 3] [nM] | Emax ± S.E.M. [1, 4] [%] | Structure (SMILES) | also measured |
| --- | --- | --- | --- | --- |
| 6.46 ± 0.16 | 350 | 99 ± 2 | CC1(c2ccc3c(c2)OCCO3)NC(=O)N(CC(=O)c2ccc[nH]2)C1=O (centres unmarked) [AC191] | – |
| 6.34 ± 0.11 | 460 | 111 ± 5 | CC1(c2ccc3c(c2)OCCO3)NC(=O)N(CC(=O)c2c[nH]c3ccccc23)C1=O (centres unmarked) [AC200] | – |
| 6.47 ± 0.09 | 340 | 102 ± 2 | CC1(c2ccc3c(c2)OCO3)NC(=O)N(CC(=O)N2CCCc3ccccc32)C1=O (centres unmarked) [AC202] | – |
| 6.36 ± 0.14 | 440 | 100 ± 3 | CC1(c2ccc3c(c2)OCCO3)NC(=O)N(CC(=O)c2ccc3c(c2)OCO3)C1=O (centres unmarked) [AC205] | – |
| 6.54 ± 0.17 | 290 | 107 ± 3 | CC1(c2ccc3c(c2)OCCO3)NC(=O)N(CC(=O)N2CCc3ccccc3C2)C1=O (centres unmarked) [AC209] | – |
| 6.20 ± 0.24 | 630 | 115 ± 8 | CCc1cccc2c(C(=O)CN3C(=O)NC(C)(c4ccc5c(c4)OCCO5)C3=O)c[nH]c12 (centres unmarked) [AC210] | – |
| 6.42 ± 0.07 | 380 | 99 ± 3 | CC1(c2cccc3ccccc23)NC(=O)N(CC(=O)c2ccc3c(c2)OCO3)C1=O (centres unmarked) [AC234] | – |

The next lines start with the compound.

| Structure (SMILES) | pEC50 ± S.E.M. ([1]; CHO-GPR139 cells) | EC50 [1, 3] [nM] | Emax ± S.E.M. [1, 4] [%] | also measured |
| --- | --- | --- | --- | --- |
| CC(NC(=O)NCC(=O)NCC1CC1)c1ccc(F)cc1Cl (centres unmarked) [AC178] | 6.55 ± 0.07 | 280 | 97 ± 5 | – |
| CC1CC(C)CN(C(=O)CN2C(=O)NC(C)(c3cccc4ccccc34)C2=O)C1 (centres unmarked) [AC186] | 6.39 ± 0.12 | 410 | 89 ± 5 | – |
| CC1(c2cccc3ccccc23)NC(=O)N(CC(=O)N2CCCCCC2)C1=O (centres unmarked) [AC187] | 6.13 ± 0.22 | 740 | 102 ± 5 | – |
| CC1(c2ccc3c(c2)OCO3)NC(=O)N(CC(=O)N2CCCCC2)C1=O (centres unmarked) [AC192] | 6.12 ± 0.13 | 750 | 95 ± 1 | – |
| CC(=O)Oc1cccc2c1C(=O)c1c(OC(C)=O)cc(C(=O)O)cc1C2=O [AC201] | – | – | – | EC50 ([1]; calcium mobilization assay, GPR139, read-out: EC50): 1800 nM; EC50 ([1]; calcium mobilization assay, GPR139, values printed with a minus sign, read-out: pEC50 ± SEM (converted)): 1780 nM; Emax ([1]; calcium mobilization assay, efficacy normalized to compound 1a): 96% |
| CC(C)(C)c1cc(NC(=O)Nc2ccc(-c3cn4c(n3)sc3cc(OCCN5CCOCC5)ccc34)cc2)no1 [AC220] | – | 490 | – | Emax [1, 4]: 103 ± 3% |
| C=CCN(CC=C)C(=O)CN1C(=O)NC(C)(c2cccc3ccccc23)C1=O (centres unmarked) [AC229] | 6.36 ± 0.16 | 430 | 95 ± 2 | – |
| C=C(C)CN(CC)C(=O)CN1C(=O)NC(C)(c2cccc3ccccc23)C1=O (centres unmarked) [AC230] | 6.31 ± 0.27 | 490 | 89 ± 1 | – |
| CC1(c2cccc3ccccc23)NC(=O)N(CC(=O)c2cc3ccccc3o2)C1=O (centres unmarked) [AC233] | 6.47 ± 0.19 | 340 | 80 ± 6 | – |
| CC1(c2cccc3ccccc23)NC(=O)N(CC(=O)c2ccc(CCNS(C)(=O)=O)s2)C1=O (centres unmarked) [AC241] | 6.38 ± 0.06 | 420 | 88 ± 3 | – |
| CC1(c2cccc3ccccc23)NC(=O)N(CC(=O)NCCc2ccccc2)C1=O (centres unmarked) [AC243] | 6.45 ± 0.11 | 350 | 86 ± 5 | – |
| N[C@@H](Cc1c[nH]c2ccccc12)C(=O)O [L-tryptophan, reference compound] | – | – | – | EC50 ([2]; 5 minute stimulation, read-out: EC50): 770000 nM; EC50 ([2]; read-out: pEC50 ± SEM (converted)): 759000 nM; Emax ([2]; expressed relative to FBS positive control): 70.6 ± 8.59% |

Reference: article PMC6405842, “Identification of a novel scaffold for a small molecule GPR139 receptor agonist” (Scientific Reports, 2019)
